In publication PMC8286836, “Identifying SARS-CoV-2 antiviral compounds by screening for small molecule inhibitors of Nsp5 main protease” (Biochemical Journal, 2021):
“And” between values parts separate entries of the source, which are not always exact repeats. Equal entries are not always repeated. “Also recorded” adds a separate entry of the source. Where two headings read alike, the source gives them in different places. Where a SMILES comes first, the peptide text is derived from it. [ ]: non-standard residue; d: D form. The star is where a group is joined. Nle = CCCC[C@H](N)C(=O)O; Cbz = O=C(OCc1ccccc1)*; CH2F = FC*

How the values were obtained:
nsp5 [1] = molecular target: T1, nsp5 (Severe acute respiratory syndrome coronavirus 2, UniProt P0DTD1); test: biochemical; assay type: biochemical; details: for inhibition of nsp5 in FRET-based assay: drug concentrations 0 to 500 µM; for inhibition of nsp5 in presence of reducing agent: DTT or GSH; for inhibition of nsp5 in absence of reducing agent: no reducing agent
nsp5 [2] = molecular target: T1, nsp5; test: Gel based nsp9 cleavage assay; assay type: biochemical; details: 1 µM nsp5, drug 10-500 µM
thrombin = thrombin (Homo sapiens, UniProt P00734); test: thrombin FRET protease assay (specificity); assay type: biochemical; details: for inhibition of thrombin activity (words): same buffer as in the HTS
Text: Calpain Inhibitor I and Z-DEVD-FMK were described recently as nsp5 inhibitors in vitro [21, 25]. To test the specificity of the final five drugs we tested them against a different protease, thrombin. We used the same buffer as in the HTS, which contained a non-ionic detergent, which reduces the likelihood of unspecific inhibition via colloidal aggregation. […] Lastly, we tested whether these compounds could inhibit the other viral coronavirus protease (nsp3 PLpro), which is also a cysteine protease. The substrate and assay conditions used in this experiment as well as example inhibitor compounds of PLpro are described elsewhere (see [28]).
The peptides were analysed by LC–MS on an Agilent 1100 LC-MSD.

mice = details: cited from earlier work
SARS-CoV-2 = test: viral infectivity assay in Vero E6 cells; assay type: cell-based; details: for EC50: read-out: EC50 viral infection
rhesus macaques = tested on: rhesus macaques; parameters: method as in PMID 29553486; details: trials investigating AIDS disease progression; cited from earlier work
[3] = FRET-based assay, 10 nM nsp5, 20 µM substrate, 2 mM DTT, mean ± SEM, read-out: IC50
[4] = Severe acute respiratory syndrome coronavirus 2, Vero C1008, Vero E6 cells, MOI 0.5 PFU/cell, mean ± SEM

| Molecule | inhibition of nsp5 in FRET-based assay (nsp5 [1]) | Hill coefficient (nH) (nsp5 [1]; FRET-based assay, mean ± SEM) | inhibition of nsp5 in nsp9 gel-based cleavage assay (words) (nsp5 [2]) | IC50 (nsp5 [1]; [3]) [nM] | other results |
| --- | --- | --- | --- | --- | --- |
| CCNC(=O)[C@H]1O[C@@H](n2cnc3c(N)ncnc32)[C@H](O)[C@@H]1O [5'-N-Ethulcarbomaxidoadenosine] | Did not inhibit |  |  |  |  |
| O=C1O/C(=C/Br)CCC1c1cccc2ccccc12 (stereo not shown) [Bromoenol lactone] |  | -2.6 ± 0.15 | inhibited nsp5 |  | IC50 (nsp5 [1]): 3400 nM; Inhibition of thrombin: nH (thrombin; HTS buffer, thrombin FRET substrate, mean ± SEM): -2.8 ± 0.8; IC50 (thrombin; HTS buffer, thrombin FRET substrate, mean ± SEM, read-out: Inhibition of thrombin: IC50): 400 ± 600 nM; inhibition of thrombin activity (words) (thrombin): I nhibited thrombin; inhibition of thrombin activity (words) (thrombin; listed as bromoenol lactone): inhibited thrombin activity |
| Cc1ccccc1N=Nc1ccc(NC(=O)c2ccnn2C)c(C)c1 [CH-223191] | Did not inhibit |  |  |  |  |
| CCCC[C@@H](C=O)NC(=O)[C@H](CC(C)C)NC(=O)[C@H](CC(C)C)NC(C)=O [Calpain Inhibitor I, (2S)-2-(acetylamino)-N-[(1S)-1-({[(1S)-1-formylpentyl]amino}carbonyl)-3-methylbutyl]-4-methylpentanamide] (Ac-Leu-Leu-[Nle]-aldehyde) |  | -2.0 ± 0.1 | inhibited nsp5 | 5170 ± 170 | inhibition of nsp5 in presence of reducing agent (nsp5 [1]; FRET-based assay): inhibited nsp5 in the absence of reducing agent as well as the presence of either reducing agent; IC50 (nsp5 [1]; FRET-based assay, Reducing agent: DTT, read-out: IC50): 2800 ± 200 nM; IC50 (nsp5 [1]; FRET-based assay, Reducing agent: GSH, read-out: IC50): 2300 ± 200 nM; IC50 (nsp5 [1]; FRET-based assay, Reducing agent: None, read-out: IC50): 2400 ± 100 nM; inhibition of nsp5 in absence of reducing agent (nsp5 [1]; FRET-based assay): inhibited nsp5 in the absence of reducing agent; toxic effects in mice (mice): without obvious toxic effects; EC50 (SARS-CoV-2; [4]): 280 ± 10 nM |
| O=c1c2ccccc2[se]n1-c1ccccc1 [Ebselen] |  |  |  |  | inhibition of nsp5 in presence of reducing agent (nsp5 [1]; FRET-based assay): only a slight reduction in nsp5 activity; inhibition of nsp5 in absence of reducing agent (nsp5 [1]; FRET-based assay): inhibited nsp5 only in the absence of a reducing agent |
| Br.CCCc1cc(-c2nc(-c3ccc(C)cc3)cs2)ccn1 [Fatostatin HBr] | showed some inhibition of nsp5 | -0.3 ± 0.08 | Did not inhibit; also recorded: did not show inhibition at any of the drug concentrations | 64900 |  |
| CN1CCN(c2c(F)cc3c(=O)c(C(=O)O)cn4c3c2OCN4C)CC1 [Marbofloxacin] | Did not inhibit |  |  |  |  |
| CC(C)[C@H](NC(=O)c1ccc2ccccc2n1)C(=O)N[C@@H](CC(=O)O)C(=O)COc1c(F)cccc1F [Q-VD-OPh] |  |  | did not inhibit nsp5 activity |  | toxic side effects in rhesus macaques (rhesus macaques): no toxic side effects |
| CCOc1ccc(Cc2cc([C@@H]3O[C@H](SC)[C@@H](O)[C@H](O)[C@H]3O)ccc2Cl)cc1 [Sotagliflozin (LX4211), Sotagliflozin] | Did not inhibit |  |  |  |  |
| COc1cc2ncc(-c3ccccc3)nc2cc1OC [Tyrphostin AG 1296] | did not inhibit in either validation step |  | did not inhibit in either validation step |  |  |
| COC(=O)CC(NC(=O)C(CC(C)C)NC(=O)C(NC(=O)C(C)NC(=O)C(CO)NC(=O)C(C)NC(=O)OCc1ccccc1)C(C)C)C(=O)CF (stereo not shown) [Z-ASAVLD-FMK] (Cbz-ASAVLD(OMe)-CH2F; configuration not given here) |  |  |  | 260 ± 20 |  |
| COC(=O)CC(NC(=O)C(CC(C)C)NC(=O)C(NC(=O)C(C)NC(=O)OCc1ccccc1)C(C)C)C(=O)CF (stereo not shown) [Z-AVLD-FMK] (Cbz-AVLD(OMe)-CH2F; configuration not given here) |  |  |  |  | IC50 (nsp5 [1]; FRET-based assay, custom FMK peptides, mean ± SEM, read-out: IC50): < 1 nM and 0.8 nM; EC50 (SARS-CoV-2; Severe acute respiratory syndrome coronavirus 2, Vero C1008): 66000 ± 7280 nM; increase in inhibitor potency (EC50) compared with Z-VAD-FMK (SARS-CoV-2; Vero E6 cells): 2 fold; EC50 (SARS-CoV-2): 66000 ± 7300 nM |
| COC(=O)CCC(NC(=O)C(CC(=O)OC)NC(=O)OCc1ccccc1)C(=O)NC(C(=O)NC(CC(=O)OC)C(=O)CF)C(C)C (stereo not shown) [Z-DEVD-FMK] |  | -0.7 ± 0.05 | inhibited nsp5 |  | IC50 (nsp5 [1]): 230 ± 30 nM |
| CCC(C)C(NC(=O)OCc1ccccc1)C(=O)NC(CCC(=O)OC)C(=O)NC(C(=O)NC(CC(=O)OC)C(=O)CF)C(C)O (stereo not shown) [Z-IETD-FMK] (Cbz-IE(OMe)TD(OMe)-CH2F; configuration not given here) |  | -1.4 ± 0.08 | inhibited nsp5 | 230 ± 10 |  |
| COC(=O)CC(NC(=O)C(CC(C)C)NC(=O)C(NC(=O)C(C)NC(=O)C(CO)NC(=O)OCc1ccccc1)C(C)C)C(=O)CF (stereo not shown) [Z-SAVLD-FMK] (Cbz-SAVLD(OMe)-CH2F; configuration not given here) |  |  |  | 20 ± 1 |  |
| COC(=O)CC(NC(=O)C(C)NC(=O)C(NC(=O)OCc1ccccc1)C(C)C)C(=O)CF (stereo not drawn) [Z-VAD-FMK, Z-VAD(OMe)-FMK] (Cbz-Val-Ala-Asp(OMe)-CH2F; configuration not given here) |  | -1.5 ± 0.07 | inhibited nsp5 |  | IC50 (nsp5 [1]): 160 ± 10 nM; EC50 (SARS-CoV-2; [4]): 138000 ± 19000 nM; concentrations at which inhibition of viral infection was displayed (SARS-CoV-2; Vero E6 cells): greater than 100 µM |
| PDK1/Akt/Flt Dual Pathway Inhibitor | showed some inhibition of nsp5 | -0.3 ± 0.02 | Did not inhibit | 26300 | inhibition of nsp5 in nsp9 gel-based cleavage assay (words) (nsp5 [2]; listed as PDK1/Akt/Flt Dual pathway): did not show inhibition at any of the drug concentrations |
| Q-DEVD-OPh |  |  | only displayed inhibition at the highest concentration of drug tested |  |  |
| Q-IETD-OPh |  |  | showed the best nsp5 inhibition |  |  |
